Experimental data: ChEMBL document CHEMBL3585310, “Synthesis and evaluation of artesunateindoloquinoline hybrids as antimalarial drug candidates” (Medchemcomm, 2014)

Legend:
Heme = experiment: Binding affinity to heme assessed as inhibition of beta-hematin formation by NP40 detergent based assay
[1] = Selectivity index, ratio of IC50 for rat L6 cells to IC50 for chloroquine-resistant Plasmodium falciparum K1; type: toxicity, cell-based; settings: L6 cells (cytotoxicity) versus Plasmodium falciparum K1, read-out: Ratio IC50
Plasmodium falciparum [2] = experiment: Resistance index, ratio of IC50 for chloroquine-resistant Plasmodium falciparum K1 to IC50 chloroquine-sensitive Plasmodium falciparum NF54; type: functional
Plasmodium berghei [3] = experiment: Antimalarial activity against Plasmodium berghei infected in NMRI mouse at 10 mg/kg, ip for 4 consecutive days by FACS analysis; type: functional
Plasmodium berghei [4] = experiment: Antimalarial activity against Plasmodium berghei infected in NMRI mouse assessed as survival at 10 mg/kg, ip for 4 consecutive days by FACS analysis; type: functional
Plasmodium falciparum [5] = experiment: Antiplasmodial activity against chloroquine-sensitive Plasmodium falciparum NF54; type: functional, organism-based
L6 = experiment: Cytotoxicity against rat L6 cells; type: cell-based
[6] = Selectivity index, ratio of IC50 for rat L6 cells to IC50 for chloroquine-sensitive Plasmodium falciparum NF54; type: toxicity, cell-based; settings: L6 cells (cytotoxicity) versus Plasmodium falciparum NF54, read-out: Ratio IC50
Plasmodium falciparum [7] = experiment: Antiplasmodial activity against chloroquine-resistant Plasmodium falciparum K1; type: functional, organism-based

SMILES	IC50 (Heme) [µM]	selectivity ratio [1]	Ratio IC50 (Plasmodium falciparum [2])	Activity (Plasmodium berghei [3]) [%]	MSD (Plasmodium berghei [4]) [days]	IC50 (Plasmodium falciparum [5]) [µM]	IC50 (L6) [µM]	selectivity ratio [6]	IC50 (Plasmodium falciparum [7]) [µM]
COC(=O)c1ccc2c(c1)c(NCCCN)c1c3ccccc3nc-1n2C	104								
C[C@H]1[C@H](OC(=O)CCC(=O)NCCCNc2c3c4ccccc4nc-3n(C)c3ccccc23)O[C@@H]2O[C@@]3(C)CC[C@H]4CCC[C@@H]1[C@]42OO3	222	3640	0.93	89.6	7.7	0.00045	1.53	3400	0.00042
COC(=O)c1ccc2c(c1)c(NCCCNC(=O)CCC(=O)O[C@@H]1O[C@@H]3O[C@@]4(C)CC[C@H]5CCC[C@@H]([C@H]1C)[C@]53OO4)c1c3ccccc3nc-1n2C	29.2	3720	0.35			0.00288	3.72	1290	0.001
COC(=O)c1ccc2c(c1)c(NCC(C)(C)CNC(=O)CCC(=O)O[C@@H]1O[C@@H]3O[C@@]4(C)CC[C@H]5CCC[C@@H]([C@H]1C)[C@]53OO4)c1c3ccccc3nc-1n2C	25.8	604	0.36			0.00317	0.695	219	0.00115
C[C@H]1[C@H](OC(=O)CCC(=O)NCC(C)(C)CNc2c3c4ccccc4nc-3n(C)c3ccc(Br)cc23)O[C@@H]2O[C@@]3(C)CC[C@H]4CCC[C@@H]1[C@]42OO3	28.9	1040	0.3			0.00321	0.991	309	0.00095
COC(=O)c1ccc2c(c1)c(NCC(O)CNC(=O)CCC(=O)O[C@@H]1O[C@@H]3O[C@@]4(C)CC[C@H]5CCC[C@@H]([C@H]1C)[C@]53OO4)c1c3ccccc3nc-1n2C (stereo partly drawn)	41.7	3060	0.27			0.00148	1.22	826	0.0004
C[C@H]1[C@H](OC(=O)CCC(=O)NCC(C)(C)CNc2c3c4ccccc4nc-3n(C)c3ccc(Cl)cc23)O[C@@H]2O[C@@]3(C)CC[C@H]4CCC[C@@H]1[C@]42OO3	37.8	3130	0.27			0.0015	1.28	856	0.00041
C[C@H]1[C@H](OC(=O)CCC(=O)NCC(C)(C)CNc2c3c4ccccc4nc-3n(C)c3ccccc23)O[C@@H]2O[C@@]3(C)CC[C@H]4CCC[C@@H]1[C@]42OO3	70.2	3180	0.82			0.00114	2.96	2600	0.00093
NCCCNc1c2ccccc2nc2c1[nH]c1ccccc12	16.8					0.0172	0.276	16	
C[C@@H]1CC[C@H]2[C@@H](C)C(=O)O[C@@H]3O[C@@]4(C)CC[C@@H]1[C@]32OO4 [ARTEMISININ]						0.0043			0.0028
C[C@H]1[C@H](OC(=O)CCC(=O)NCCCNc2nc3ccccc3c3[nH]c4ccccc4c23)O[C@@H]2O[C@@]3(C)CC[C@H]4[C@H](C)CC[C@@H]1[C@@]24OO3	15.7	3290	0.4			0.00167	2.2	1320	0.00067
NCCCNc1nc2ccccc2c2[nH]c3ccccc3c12	627	7.6	6					45.8	
C[C@H]1[C@H](OC(=O)CCC(=O)NCCCNc2c3ccccc3nc3c2[nH]c2ccccc23)O[C@@H]2O[C@@]3(C)CC[C@H]4[C@H](C)CC[C@@H]1[C@@]24OO3	17.1					0.0122	2.62	215	
